Data published in patent US20110207817A1, “ANTI-INFLAMMATORY COMPOUNDS AND COMPOSITIONS THEREOF” (priority 2008, published 2011).

Tests used:
Format in all cases: cell-based
[1] = test system: Human Gingival Fibroblast (HGF) cells; experiment: PGE2 release from LPS-irritated Human Gingival Fibroblast cells, neat solution (Example 1); conditions: for PGE2 Release (with LPS): 2 μg/mL P. gingivalis LPS, negative control without LPS = 100%
Experimental: For Examples 1 through 3, three sets of cell culture experiments were conducted in order to establish the anti-inflammatory efficacy of sodium propyl paraben. In all cases, in-vitro testing was conducted using Human Gingival Fibroblast cells suspended in low serum media. To irritate the cells, 2 μg/mL lipopolysaccharide (LPS) derived from P. gingivalis was added to the media. Sodium propyl paraben was added either directly to the media or incorporated into an adhesive matrix which was then suspended into the media by means of a permeable plastic insert. Cellular response was quantified by the presence of Prostaglandin E2 (PGE2), a cytokine associated with cellular irritation and inflammation, following an incubation period. Data is reported below after normalizing the level of PGE2 release of a negative control to “100%”. In-vitro testing was conducted using Human Gingival Fibroblast (HGF) cells that had been purchased from ScienCell (Carlsbad, Calif.). Prior to use, the cells had been grown in a 37° C. incubator with 5% CO2 and 95% humidity. Cells were maintained in high glucose Dulbecco's Modified Eagle's Medium (Mediatech, Manassas, Va.) with a 10% addition of heat inactivated Fetal Bovine Serum (Mediatech) and a 1% addition of Penicillin-Streptomycin 100× solution (Mediatech). Cells that had been previously frozen for long-term storage were allowed to recover/expand for at least one passage before being utilized for experimentation. To plate the cells, the maintenance medium was aspirated and the cells were washed with Hank's Balanced Salt Solution (Mediatech). Subsequently, the HBSS was aspirated and a trypsin-EDTA solution (Mediatech) was added to ensure that the cells released from the tissue culture plastic. Maintenance medium was reapplied and fractions of the solution containing the cells were transferred to a multi-well plate. After transfer, incubation was conducted to expand the cell population to 80% confluency. When the desired level of confluency was achieved, the maintenance medium was aspirated and one of several test solutions was added. For a negative control, a low serum medium was prepared that contained 0.5% of Fetal Bovine Serum (Mediatech) and 581.08 mg/L of L-gluatmine powder (Sigma-Aldrich, Milwaukee, Wis.) in DMEM High Glucose Media without Phenol Red and L-Glutamine (VWR Scientific, West Chester, Pa.). Low serum media were also prepared with the addition of 1, 10, or, 100 μg/mL of sodium propyl paraben (Sigma-Aldrich). […] An ELISA kit from R&D Systems (Minneapolis, Minn.) was used to quantify the release of PGE2 from the cells. […] The quantity of PGE2 reported by the assay was normalized by the percentage of viable cells or total protein. […]

[2] = test system: human gingival fibroblast HGF cells; experiment: LPS-mediated IL-8 production (Example 4)
Experimental: (§1) In the presence and absence of sodium propyl paraben, mouse macrophage cells (RAW 264.7) and human gingival cells (HGF) were stimulated with LPS and the levels of inflammatory mediators Prostaglandin E2 (PGE2) and interleukin 8 (IL-8) in the cell supernatants were measured. While LPS administration increased the secretion of inflammatory mediators, sodium propyl paraben decreased LPS induced secretion of these mediators in a dose dependent manner. Sodium propyl paraben was identified as a novel anti-inflammatory agent, inhibiting the secretion of inflammatory mediators from both leukocytes and gingival fibroblasts. Mouse macrophage Raw 264.7 cells and human gingival fibroblast HGF cells were purchased from ATCC (Manassas, Va.) and ScienCell LLC (Carlsbad, Calif.), respectively. All of the culturing reagents were purchased from Mediatech (Manassas, Va.) unless otherwise stated. Both cell lines were cultured in a humidified incubator at 37° C. and in the presence of 5% CO2 and maintained in Dulbecco's Modified Eagle Medium (DMEM, 4.5 g/l glucose) supplemented with 10% Fetal Bovine Serum (FBS) and 1% penicillin-streptomycin. […] The level of PGE2 or IL-8 was analyzed using commercially available enzyme-linked immunosorbent assay (ELISA) kits (R&D Systems, Minneapolis, Minn.). […]

[3] = test system: Mouse macrophage Raw 264.7 cells; experiment: LPS-induced PGE2 release from Raw 264.7 cells (Example 4)
Experimental: as §1

[4] = test system: human gingival fibroblast HGF cells; experiment: LPS-induced PGE2 release from HGF cells (Example 4); conditions: 100 μg/ml, without LPS
Experimental: as §1

| Structure (SMILES) | PGE2 Release (with LPS) ([1]; 1 μg/mL in low serum media) | PGE2 Release (with LPS) ([1]; 10 μg/mL in low serum media) | PGE2 Release (with LPS) ([1]; 100 μg/mL in low serum media) | PGE2 Release (without LPS) ([1]; 100 μg/mL in low serum media, no LPS, negative control = 100%) | LPS mediated IL-8 production ([2]; 1, 10 or 100 μg/ml, PG-LPS 2 μg/ml, FIG. 1C) | LPS-elevated release of PGE2 ([3]; 1, 10 and 100 μg/ml, PG-LPS 2 μg/ml, FIG. 1A) | Induction of IL-8 by compound alone ([2]; 100 μg/ml, without LPS, either cell model) | Induction of PGE2 by compound alone [4] | Induction of PGE2 by compound alone ([3]; 100 μg/ml, without LPS) |
| --- | --- | --- | --- | --- | --- | --- | --- | --- | --- |
| CCCOC(=O)c1ccc(O)cc1.[Na] [Sodium Propyl Paraben, propyl 4-hydroxybenzoate, sodium salt] | 124 ± 52% | 103 ± 23% | 84 ± 62% | 62 ± 37% | reduced LPS mediated IL-8 production in a dose dependent manner | reduced to basal level |  |  |  |
| CCCOC(=O)c1ccc(O)cc1 [propyl paraben, propyl 4-hydroxybenzoate] |  |  |  |  |  |  | not observed | not observed | not observed |
